US7572768B2, “Methods for identifying compounds for regulating muscle mass or function using corticotropin releasing factor receptors” (priority 2001, dated 2009)
Ends that are not written are not given here.

Experiments:
Format in all cases: in vivo
skeletal muscle atrophy [1] = assay: animal models of skeletal muscle atrophy (summary of FIGS. 1-9); conditions: theophylline administered alone in these atrophy models
Method: Theophylline was added to potentiate the duration and magnitude of action of the CRFR agonist therefore resulting in increased efficacy of these compounds. […] Statistical significance of the results was determined using ANCOVA (Douglas C. Montgomery, Design and Analysis of Experiments, John Wiley and Sons, New York (2nd ed. 1984)). Abbreviations used in FIGS. 1-9: g-gram; SEM-standard error of the mean.

skeletal muscle atrophy [2] = assay: Example 13: prophylactic treatment of skeletal muscle atrophy in comatose subject; conditions: human 60 kg, slow i.v. infusion once each day, 5 ml of 12 mg/ml stock in 500 ml saline
Method: A human subject weighing 60 kg is admitted to the hospital in a comatose state. The subject is treated by this method to prevent atrophy of the skeletal muscle of the entire body due to disuse in the comatose state. Specifically, once each day while in the coma, the subject is administered, via slow intravenous infusion, approximately 500 ml of an aqueous solution that is prepared by addition of 5 ml of the following stock solution to 500 ml of sterile saline: […]

[3] = tested on: denervation-induced atrophy of skeletal muscle; assay: mouse sciatic nerve denervation atrophy model; conditions: FIG. 5, day nine
Method: Legend: A—physiological saline (control); B—sauvagine (0.01 mg/kg)+theophylline; C—sauvagine (0.03 mg/kg)+theophylline; D—sauvagine (0.1 mg/kg)+theophylline; E—sauvagine (1.0 mg/kg)+theophylline; *—p≦0.05 compared to saline. Following denervation of the right sciatic nerve, male mice were injected subcutaneously in the midscapular region twice daily with sauvagine, at the doses indicated above or vehicle control (physiological saline) for nine days. Sauvagine was co-administered with 30 mg/kg theophylline. On day nine, the medial gastrocnemius muscle was removed and weighed to determine the degree of atrophy.
Legend: A—water (control); B—sauvagine (0.1 mg/kg/d); C—sauvagine (0.3 mg/kg/d); D—sauvagine (1.0 mg/kg/d); *—p≦0.05 compared to water. Following denervation of the right sciatic nerve, male mice were dosed with either sauvagine or vehicle control (physiological saline) by continuous infusion using an Alzet osmotic minipump at 5 μl/hr until the end of the experimental period (without additional theophylline). The daily delivered dose of sauvagine is indicated above. Minipump implantation was performed at the time of sciatic nerve denervation. On day nine the tibialis anterior muscle was removed and weighed to determine the degree of atrophy.
Legend: A—water (control); B—sauvagine (1 mg/kg/d); C—urocortin (1.0 mg/kg/d); *—p≦0.05 compared to water. Following denervation of the right sciatic nerve, male mice were dosed with the above indicated agents or vehicle control (physiological saline) by continuous infusion using an Alzet osmotic minipump at 5 μl/hr until the end of the experimental period (without additional theophylline). The daily delivered dose of the agents is indicated above. Minipump implantation was performed at the same time as the sciatic nerve denervation. On day nine the tibialis anterior muscle was removed and weighed to determine the degree of atrophy.
Legend: A-C—wild-type mice; D-F—CRF2R knockout mice. A and D—water (control); B and E—sauvagine (0.3 mg/kg/d); C and F—sauvagine (1.0 mg/kg/d); *—p≦0.05 compared to saline. Following denervation of the right sciatic nerve, female wild-type and CRF2R knockout mice were dosed with sauvagine or vehicle control by continuous infusion using an Alzet osmotic minipump at 5 μl/hr for nine days at the daily delivered dose indicated above. On day nine, the tibialis anterior muscle was removed and weighed to determine the degree of atrophy.
The sciatic nerve denervation atrophy model involves anesthetizing the animal followed by the surgical removal of a short segment of either the right or left sciatic nerve, e.g., in mice the sciatic nerve is isolated approximately at the midpoint along the femur and a 3-5 mm segment is removed. This denervates the lower hind limb musculature resulting in atrophy of these muscles. Typically, innervation to the biceps femoris is left intact to provide satisfactory motion of the knee for virtually normal ambulation. Typically, in untreated animals, muscle mass of the denervated muscles is reduced 30-50% ten days following denervation. Following denervation, test compounds are administered e.g., by injection or by continuous infusion, e.g., via implantation of an osmotic minipump (e.g., Alzet, Palo Alto, Calif.), to determine their effect on denervation induced skeletal muscle atrophy. At various times following denervation, the animals are euthanized and lower leg muscles are dissected rapidly from both the denervated and nondenervated legs, the muscles, cleaned of tendons and connective tissue, are weighed. The extent of atrophy in the affected muscles is analyzed, for example, by measuring muscle mass, muscle cross-sectional area, myofiber cross-sectional area or contractile protein content.

[4] = tested on: disuse-induced atrophy of skeletal muscle; assay: mouse leg casting disuse atrophy model; conditions: male mice, 0.3 mg/kg s.c. twice daily + theophylline 30 mg/kg i.p., ten days
Method: (§1) Legend: A—physiological saline (control); B—theophylline; C—sauvagine (0.03 mg/kg)+theophylline; D—sauvagine (0.1 mg/kg)+theophylline; E—sauvagine (0.3 mg/kg)+theophylline; *—p≦0.05 compared to saline. Following casting of the right hind leg, male mice were injected subcutaneously in the midscapular region twice daily, with sauvagine or vehicle control (physiological saline) for ten days at the daily delivered dose indicated. Sauvagine was co-administered with twice daily intra-peritoneal dosing of the phosphodiesterase inhibitor theophylline (30 mg/kg). On day ten, the medial gastrocnemius and tibialis anterior muscles were removed and weighed to determine the degree of atrophy.
as §1, with “B—urocortin” for “B—theophylline; C—sauvagine (0.03 mg/kg)+theophylline; D—sauvagine (0.1 mg/kg)+theophylline; E—sauvagine”, “urocortin” for “sauvagine”, “days. Urocortin was administered” for “days”, “doses indicated in the description of FIGS. 6A and 6B. Urocortin” for “daily delivered dose indicated. Sauvagine”
Legend: A—non casted muscle control; B—casted muscle, saline control; C—casted muscle, sauvagine (0.3 mg/kg)+theophylline (30 mg/kg); *—p≦0.05 compared to saline. Following casting of the right hind leg, male mice were injected subcutaneously in the midscapular region twice daily, with either sauvagine or vehicle control (physiological saline) for ten days at the doses indicated above. Sauvagine was co-administered 30 mg/kg theophylline. On day ten, the EDL and soleus muscles were removed and absolute force and mass measurements taken to determine the degree of atrophy.
The leg casting disuse atrophy model involves casting one hind leg of an animal from the knee down through the foot. Typically, muscle mass is reduced 20-40% after ten days of casting. Following casting, test compounds are administered by injection or by continuous infusion via implantation of an osmotic minipump (e.g., Alzet, Palo Alto, Calif.) to determine their effect on leg casting induced skeletal muscle atrophy. At various times following leg casting, the extent of atrophy in the affected muscles is analyzed as described above for the denervation model.
The extensor digitorum longus (EDL) and soleus muscles are removed, tendon-to-tendon from the casted mouse leg. A silk suture is tied to each tendon of the isolated muscles and the muscles are placed into a plexiglass chamber filled with Ringer solution (137 mM sodium chloride, 24 mM sodium bicarbonate, 11 mM glucose, 5 mM potassium chloride, 1 mM magnesium sulfate, 1 mM sodium phosphate, 0.025 mM tubocurarine, all at pH 7.4 and oxygenated with 95% oxygen/5% carbon dioxide) constantly bubbled with 95% oxygen/5% carbon dioxide maintained at 25° C. Muscles are aligned horizontally between a servomotor lever arm (Model 305B-LR Cambridge Technology Inc., Watertown Mass., USA) and the stainless steel hook of a force transducer (Model BG-50; Kulite Semiconductor Products Inc., Leonia, N.J., USA) and field stimulated by pulses transmitted between two platinum electrodes placed longitudinally on either side of the muscle. Square wave pulses (0.2 ms duration) generated by a personal computer with a Labview board (Model PCI-MIO 16E-4), Labview Inc., Austin, Tex., USA) are amplified (Acurus power amplifier model A25, Dobbs Ferry, N.Y., USA) to increase titanic contraction. Stimulation voltage and muscle length (Lo) are adjusted to obtain maximum isometric twitch force. Maximum titanic force production (Po) is determined from the plateau of the frequency-force relationship.

Compound: Cn1c(=O)c2[nH]cnc2n(C)c1=O [Theophylline, theophylline]
- effect on skeletal muscle atrophy (skeletal muscle atrophy [1]): had no effect

Compound: Urocortin-II (VILSLDVPIGLLRILLEQARYKAARNQAATNAQILAHV; listed as Mus musculus) [CRF analog]
- skeletal muscle mass and function (skeletal muscle atrophy [2]): measurable preservation of skeletal muscle mass and function

Compound: urocortin (DNPSLSIDLTFHLLRTLLELARTQSQRERAEQNRIIFDSV; ends and bridges not checked; UniProt P55089 83-122, looked up) [mammalian congener of urotensin, CRFR agonist (Bachem Biosciences, Inc.)]
- hypertrophy of the non-denervated leg (tibialis anterior muscle) ([3]; 1.0 mg/kg/d by osmotic minipump): hypertrophy of the non-denervated leg was observed
- denervation-induced atrophy of the tibialis anterior muscle (muscle weight) ([3]; male mice, 1 mg/kg/d continuous infusion by osmotic minipump, no theophylline): inhibit denervation-induced atrophy
- disuse-induced atrophy of the tibialis anterior muscle (muscle weight) ([4]; FIG. 6A): inhibits disuse-induced atrophy
- disuse-induced atrophy of the medial gastrocnemius muscle (muscle weight) ([4]; FIG. 6B): inhibits disuse-induced atrophy
